{"source": "patent US4639466A", "about": "“3',6-diisopentenyl-2',4'-dihydroxy-5,7-dimethoxy-isoflavan and related compounds useful as anxiolytic agents and avermectin antidotes” (Merck & Co., Inc., priority 1984, dated 1987)", "key": {"[1]": {"tested_on": "benzodiazepine receptors", "conditions": "known from prior art; cited from earlier work"}, "[2]": {"tested_on": "C. elegans", "test": "C. elegans motility assay (effect on avermectin activity, % active worms)", "assay_type": "in vivo", "excerpt": "1. The C. elegans motility assay:\nThe procedures for the C. elegans motility assay is described in S. S. Pong et al., J. NuroChem. 34, 351-358, 1980."}, "[3]": {"tested_on": "benzodiazepine receptors", "test": "Benzodiazepine receptor binding assay (BARIN; effect on ^3 H-diazepam binding)"}}, "note": "Like-named read-outs stand apart in the source and are kept apart here.", "data": [{"smiles": "CCCCNc1c(C(=O)OCC)c(C)nc2c1cnn2CC", "note": "[tracazolate]", "values": [{"measurement": "effect on benzodiazepine binding", "setting": "[1]", "value": "stimulates benzodiazepine binding"}]}, {"smiles": "CC[C@H](C)[C@H]1O[C@]2(C=C[C@@H]1C)C[C@@H]1C[C@@H](C/C=C(\\C)[C@@H](O[C@H]3C[C@H](OC)[C@@H](O[C@H]4C[C@H](OC)[C@@H](O)[C@H](C)O4)[C@H](C)O3)[C@@H](C)/C=C/C=C3\\CO[C@@H]4[C@H](O)C(C)=C[C@@H](C(=O)O1)[C@]34O)O2", "note": "[avermectin]", "values": [{"measurement": "% active worms", "setting": "[2]; isoflavan 0 μg/ml, avermectin 0.156 μg/ml (avermectin alone)", "value": 85, "unit": "%"}, {"measurement": "% active worms", "setting": "[2]; isoflavan 0 μg/ml, avermectin 0.313 μg/ml (avermectin alone)", "value": 20, "unit": "%"}, {"measurement": "% active worms", "setting": "[2]; isoflavan 0 μg/ml, avermectin 0.625 μg/ml (avermectin alone)", "value": 4, "unit": "%"}]}, {"smiles": "COc1cc2c(c(OC)c1CC=C(C)C)CC(c1ccc(O)c(CC=C(C)C)c1O)CO2", "note": "(centres unmarked) [3',6-diisopentenyl-2',4'-dihydroxy-5,7-dimethoxyisoflavan]", "values": [{"measurement": "antagonism of avermectin in the C. elegans motility assay", "setting": "[2]; in vivo", "value": "potent antagonist of avermectin"}, {"measurement": "% active worms", "setting": "[2]; isoflavan 5 μg/ml, avermectin 0 μg/ml", "value": 97, "unit": "%"}, {"measurement": "% active worms", "setting": "[2]; isoflavan 5 μg/ml, avermectin 0.156 μg/ml", "value": 60, "unit": "%"}, {"measurement": "% active worms", "setting": "[2]; isoflavan 5 μg/ml, avermectin 0.313 μg/ml", "value": 60, "unit": "%"}, {"measurement": "% active worms", "setting": "[2]; isoflavan 5 μg/ml, avermectin 0.625 μg/ml", "value": 77, "unit": "%"}, {"measurement": "% active worms", "setting": "[2]; isoflavan 25 μg/ml, avermectin 0 μg/ml", "value": 95, "unit": "%"}, {"measurement": "% active worms", "setting": "[2]; isoflavan 25 μg/ml, avermectin 0.156 μg/ml", "value": 88, "unit": "%"}, {"measurement": "% active worms", "setting": "[2]; isoflavan 25 μg/ml, avermectin 0.313 μg/ml", "value": 65, "unit": "%"}, {"measurement": "% active worms", "setting": "[2]; isoflavan 25 μg/ml, avermectin 0.625 μg/ml", "value": 91, "unit": "%"}, {"measurement": "blocking the highest dose of avermectin", "setting": "[2]; lowest dose level 5 μg/ml, avermectin 0.625 μg/ml", "value": "almost fully effective"}, {"measurement": "effect on benzodiazepine binding", "setting": "[3]", "value": "stimulate the benzodiazepine-binding"}, {"measurement": "EC50", "setting": "[3]; active compound (12 mg, k'=8) isolated from CH2 Cl2 extract of G. uralensis by HPLC", "value": "2 to 3", "unit": "µg/mL"}, {"measurement": "EC50 for stimulation of benzodiazepine-binding", "setting": "[3]; stimulation of binding", "value": 3, "unit": "µg/mL"}]}]}
